The target of the test is T1, BaF3 cells transfected with the Bcr-Abl T315I mutant (Homo sapiens, UniProt P00519, T315I, cells depend on it).
T1 construct: fused on or other part: P11274 (Breakpoint cluster region protein)
Kind of test: Ba/F3 cell proliferation assay, Bcr-Abl T315I (CellTiter 96 AQueous One).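 Note: murine pro-B Ba/F3 line, tetrazolium turned into formazan and read by absorbance, compound dilution series, values as percent of DMSO-treated control, IC50 from fitted curves.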 Type of test: cell-based, murine. Particulars: Ba/F3 cells expressing Bcr-Abl T315I, 3 days incubation; read-out: T315l cell proliferation.

Drawing on patent US8470851B2, “Substituted acetylenic imidazo[1,2-A]pyridine compounds as kinase inhibitors” (ARIAD Pharmaceuticals, Inc., priority 2005, dated 2013), this text covers GI50 for 61 compounds.

Text: More specifically, the cell proliferation assay we currently perform is using CellTiter 96 AQueous One Solution Cell Proliferation assay kit (Promaga, Cat#G3581). This assay is a colorimetric method for determining the number of alive cells in proliferation or cytotoxicity assays. The assay utilizing terazolium salts detect cell proliferation by detecting the product of the enzymatic conversion of the tetrazolium salts into blue formazan derivatives, which can be measured by the absorbance at 490 nm in a plate reader, Wallac Victor^2V (Perkin Elmer).
An example of cell-based assay is shown as below. The cell lines used in the assay are Ba/F3, a murine pro-B cell line, which have been stably transfected with full-length wild-type Bcr-Abl or Bcr-Abl with various kinase domain point mutations (including T351I, Y253F, E255K, H396P, M351T etc) constructs. Parental Ba/F3 cell line is used as control. […] Parental Ba/F3 cells were culture in the same medium supplemented with 10 ng/ml IL-3.
The compounds are first dissolved and diluted in DMSO by preparation of 4-fold dilution; next equal volumes of compounds with DMSO are transferred to medium and then transferred to cell plates. The final compound concentrations start from 10 μM to 6 nM. DMSO at same percentage is used as control. […] Basically, the tetrazolium salts are added to the incubated cultured cells to allow enzymatic conversion to the detectable product by active cells. Cells are processed, and the optical density of the cells is determined to measure the amount of formazan derivatives. Mean+/−SD are generated from duplicated wells and reported as the percentage absorbance of control. IC50s are calculated in best-fit curves using Micorsoft Excel-fit software.

Regarding `Cc1ccc(C(=O)Nc2ccc(CN3CCNCC3)c(C(F)(F)F)c2)cc1C#Cc1cnc2cnccn12`, the GI50 was below 1000 nM.
Turning to `Cc1ccc(C(=O)Nc2cc(C(F)(F)F)ccn2)cc1C#Cc1cnc2c(NC(N)=O)cccn12`, the GI50 was below 1000 nM.
The value for `CN1CCN(Cc2ccc(NC(=O)c3ccc(F)c(C#Cc4cnc5cnccn45)c3)cc2C(F)(F)F)CC1` was below 1000 nM.
Next, `CCN1CCN(Cc2ccc(NC(=O)c3ccc(C)c(C#Cc4cnc5cnccn45)c3)cc2C(F)(F)F)CC1`: below 1000 nM.
The value for `Cc1ccc(C(=O)Nc2ccc(CN3CCN(C)CC3)c(C(F)(F)F)c2)cc1C#Cc1cnn2c(N)ncnc12` was below 1000 nM.
Regarding `Cc1ccc(C(=O)Nc2ccc(CN3CCN(C(C)C)CC3)c(C(F)(F)F)c2)cc1C#Cc1cnc2cnccn12`, the GI50 is below 1000 nM.
Next, `CNC(=O)Nc1cccn2c(C#Cc3cc(C(=O)Nc4cc(C(F)(F)F)ccn4)ccc3C)cnc12`: below 1000 nM.
As to `Cc1ccc(C(=O)Nc2cc(C(C)(C)C)on2)cc1C#Cc1cnc2c(NC(N)=O)cccn12`, the GI50 was below 1000 nM.
Next, `Cc1ccc(C(=O)Nc2cc(-n3ccnc3)cc(C(F)(F)F)c2)cc1C#Cc1cnc2c(NC(N)=O)cccn12`: below 1000 nM.
For `CN1CCN(Cc2ccc(NC(=O)c3ccc(Cl)c(C#Cc4cnc5ccccn45)c3)cc2C(F)(F)F)CC1`, the GI50 was below 1000 nM.
For `Cc1ccc(C(=O)Nc2cc(C(F)(F)F)ccn2)cc1C#Cc1cnc2c(NC(=O)N(C)C)cccn12`, the GI50 was below 1000 nM.
Next, `Cc1ccc(C(=O)Nc2cc(C(F)(F)F)ccn2)cc1C#Cc1cnc2c(NC(=O)C3CC3)cccn12`: below 1000 nM; `CN1CCN(Cc2ccc(NC(=O)c3ccc(F)c(C#Cc4cnc5ccccn45)c3)cc2C(F)(F)F)CC1`: below 1000 nM.
Take `COC(=O)Nc1cccn2c(C#Cc3cc(C(=O)Nc4cc(C(F)(F)F)ccn4)ccc3C)cnc12`: the GI50 is below 1000 nM.
The value for `Cc1ccc(C(=O)Nc2cc(-n3ccnc3)cc(C(F)(F)F)c2)cc1C#Cc1cnc2c(NC(=O)OC(C)(C)C)cccn12` was below 1000 nM.
The value for `Cc1ccc(C(=O)Nc2ccc(OC3CCN(C)CC3)c(C(F)(F)F)c2)cc1C#Cc1cnc2cnccn12` was below 1000 nM; that for `CN1CCN(Cc2ccc(NC(=O)c3cccc(C#Cc4cnc5ccccn45)c3)cc2C(F)(F)F)CC1` was below 1000 nM.
As to `Cc1ccc(C(=O)Nc2cc(Cn3ccnc3)cc(C(F)(F)F)c2)cc1C#Cc1cnc2ccccn12`, the GI50 is below 1000 nM.
The value for `Cc1ccc(C(=O)Nc2cc(-n3ccnc3)cc(C(F)(F)F)c2)cc1C#Cc1cnn2cccnc12` was below 1000 nM; that for `Cc1ccc(C(=O)Nc2cc(Cn3ccnc3)cc(C(F)(F)F)c2)cc1C#Cc1cnc2cnccn12` was below 1000 nM; that for `CC(=O)Nc1cccn2c(C#Cc3cc(C(=O)Nc4cc(C(F)(F)F)ccn4)ccc3C)cnc12` was below 1000 nM.
The value for `Cc1ccc(C(=O)Nc2cc(C(F)(F)F)ccn2)cc1C#Cc1cnc2c(Nc3ccc(S(N)(=O)=O)cc3)cccn12` was below 1000 nM; that for `CN1CCN(Cc2ccc(NC(=O)c3cccc(C#Cc4cnc5cnccn45)c3)cc2C(F)(F)F)CC1` was below 1000 nM.
Next, `Cc1ccc(C(=O)Nc2cc(-n3cnc(C#N)c3)cc(C(F)(F)F)c2)cc1C#Cc1cnc2cnccn12`: below 1000 nM; `Cc1ccc(C(=O)Nc2cc(-n3ccnc3)cc(C(F)(F)F)c2)cc1C#Cc1cnc2c(Nc3cccc(C(N)=O)c3)cccn12`: below 1000 nM.
With `Cc1ccc(C(=O)Nc2cc(C(F)(F)F)ccn2)cc1C#Cc1cnc2c(Nc3ccc(S(C)(=O)=O)cc3)cccn12`, the GI50 was below 1000 nM.
As for `Cc1ccc(C(=O)Nc2cc(-n3cnc(CCN4CCCC4)c3)cc(C(F)(F)F)c2)cc1C#Cc1cnc2ccccn12`, the GI50 was below 1000 nM.
Next, `CC(C)N1CCN(Cc2ccc(NC(=O)c3cncc(C#Cc4cnc5cnccn45)c3)cc2C(F)(F)F)CC1`: below 1000 nM; `Cc1ccc(C(=O)Nc2cc(-n3ccnc3CN(C)C)cc(C(F)(F)F)c2)cc1C#Cc1cnc2cnccn12`: below 1000 nM.
On to `Cc1ccc(C(=O)Nc2ccc(CN3CCC(N(C)C)CC3)c(C(F)(F)F)c2)cc1C#Cc1cnc2cnccn12`, for which the GI50 was below 1000 nM.
The value for `Cc1ccc(C(=O)Nc2cc(-n3ccnc3)cc(C(F)(F)F)c2)cc1C#Cc1cnc2cnccn12` was below 1000 nM; that for `CC(C)N1CCN(Cc2ccc(NC(=O)c3cccc(C#Cc4cnc5cnccn45)c3)cc2C(F)(F)F)CC1` was below 1000 nM; that for `Cc1ccc(C(=O)Nc2cc(CN3CCCC3)cc(C(F)(F)F)c2)cc1C#Cc1cnc2cnccn12` was below 1000 nM.
As to `Cc1cn(-c2cc(NC(=O)c3ccc(C)c(C#Cc4cnc5ccccn45)c3)cc(C(F)(F)F)c2)cn1`, the GI50 is below 1000 nM.
Next, `Cc1ccc(C(=O)Nc2ccc(CN3CCN(C)CC3)c(C(F)(F)F)c2)cc1C#Cc1cnn2cccnc12`: below 1000 nM; `CN1CCN(Cc2ccc(NC(=O)c3ccc(C#Cc4cnc5ccccn45)o3)cc2C(F)(F)F)CC1`: below 1000 nM.
The value for `Cc1ccc(C(=O)Nc2ccc(CN3CCNC(=O)C3)c(C(F)(F)F)c2)cc1C#Cc1cnc2ccccn12` was below 1000 nM; that for `Cc1ccc(C(=O)Nc2cc(-n3cnc(C#N)c3)cc(C(F)(F)F)c2)cc1C#Cc1cnc2ccccn12` was below 1000 nM.
Next, `Cc1ccc(C(=O)Nc2cc(-n3cnc(CN4CCCC4)c3)cc(C(F)(F)F)c2)cc1C#Cc1cnc2cnccn12`: below 1000 nM.
For `Cc1ccc(C(=O)Nc2ccc(CN3CCC(N(C)C)CC3)c(C(F)(F)F)c2)cc1C#Cc1cnc2ccccn12`, the GI50 was below 1000 nM.
Next, `CN1CCN(Cc2ccc(C(=O)Nc3cccc(C#Cc4cnc5cnccn45)c3)cc2C(F)(F)F)CC1`: below 1000 nM; `Cc1ccc(C(=O)Nc2cc(C(C)(C)C)on2)cc1C#Cn1cnc2c(NC3CC3)ncnc21`: below 1000 nM; `Cc1ccc(C(=O)Nc2cc(C(F)(F)F)ccn2)cc1C#Cc1cnn2cccnc12`: below 1000 nM.
Next, `Cc1ccc(C(=O)Nc2ccc(CN3CCOCC3)c(C(F)(F)F)c2)cc1C#Cc1cnc2cnccn12`: below 1000 nM; `Cc1ccc(C(=O)Nc2cc(C(F)(F)F)ccn2)cc1C#Cc1cnc2c(N)cccn12`: below 1000 nM; `Cc1ccc(C(=O)Nc2cc(CN3CCCC3)cc(C(F)(F)F)c2)cc1C#Cc1cnc2ccccn12`: below 1000 nM.
Next, `Cc1ccc(C(=O)Nc2cc(CN3CCOCC3)cc(C(F)(F)F)c2)cc1C#Cc1cnc2cnccn12`: below 1000 nM.
As for `Cc1ccc(C(=O)Nc2ccc(CN3CCCC3)c(C(F)(F)F)c2)cc1C#Cc1cnc2cnccn12`, the GI50 was below 1000 nM.
Next, `Cc1ccc(C(=O)Nc2ccc(Cn3ccnc3)c(C(F)(F)F)c2)cc1C#Cc1cnc2cnccn12`: below 1000 nM.
Next, `Cc1ccc(C(=O)Nc2cc(C(F)(F)F)ccn2)cc1C#Cc1cnn2c(N)ncnc12`: below 1000 nM.
Next, `Cc1ccc(C(=O)Nc2ccc(Cn3ccnc3)c(C(F)(F)F)c2)cc1C#Cc1cnc2ccccn12`: below 1000 nM; `Cc1ccc(C(=O)Nc2cc(CN3CCOCC3)cc(C(F)(F)F)c2)cc1C#Cc1cnc2ccccn12`: below 1000 nM; `CC(=O)Nc1cccn2c(C#Cc3cc(C(=O)Nc4cccc(C(F)(F)F)c4)ccc3C)cnc12`: below 1000 nM.
Take `Cc1ccc(C(=O)Nc2cc(-n3cnc(CCN4CCCC4)c3)cc(C(F)(F)F)c2)cc1C#Cc1cnc2cnccn12`: the GI50 is below 1000 nM.
The value for `CC(=O)Nc1ncnc2c(C#Cc3cc(C(=O)Nc4cc(C(F)(F)F)ccn4)ccc3C)cnn12` was below 1000 nM.
Next, `Cc1ccc(C(=O)Nc2cc(C(F)(F)F)ccn2)cc1C#Cc1cnc2c(NC(=O)C3CCC3)cccn12`: below 1000 nM.
The value for `CC(C)(C)c1cc(NC(=O)c2cccc(C#Cc3cnc4ccccn34)c2)no1` was below 1000 nM.
Turning to `Cc1ccc(C(=O)Nc2ccc(CN3CC[C@@H](N(C)C)C3)c(C(F)(F)F)c2)cc1C#Cc1cnc2cccnn12` (racemic), the GI50 is below 1000 nM.
Regarding `Cc1ccc(C(=O)Nc2ccc(CN3CC[C@@H](O)C3)c(C(F)(F)F)c2)cc1C#Cc1cnc2ccccn12` (racemic), the GI50 is below 1000 nM.
The value for `Cc1ccc(C(=O)Nc2ccc(CN3CC[C@@H](N(C)C)C3)c(C(F)(F)F)c2)cc1C#Cc1cnc2cnccn12` (stereo in doubt) was below 1000 nM; that for `Cc1ccc(C(=O)Nc2ccc(CN3CC[C@H](N(C)C)C3)c(C(F)(F)F)c2)cc1C#Cc1cnc2cnccn12` (stereo in doubt) was below 1000 nM.
